Here are results for five compounds from patent US5840721A, “Imidazole derivatives as MDR modulators” (Ontogen Corporation, priority 1997, dated 1998).

Assay [1] has as its system CEM/VLB1000 cell line. The assay can be described thus: Cytotoxicity potentiation: enhancement of vinblastine cytotoxicity in MDR cell line (alamar blue). The format is cell-based, human. Particulars: Homo sapiens, midpoint of minimum and maximum cytotoxicity induced by 3-5 μg/mL vinblastine and compound, 48 hours incubation, alamar blue 24 hours, read-out: Cytotocicity Potentiation (EC50). As to the method: Multidrug-resistant cell lines are easily obtainable for in vitro determination of drug sensitization by compounds of the present invention. In vitro potentiation of antineoplastic cytotoxicity by the imidazole derivatives of the present invention was measured in both CEM/VLB1000 and SK/VLB1000 cell lines. The multidrug resistant cell lines were obtained from Dr. Victor Ling, Ontario Cancer Institute, Toronto, Canada. The CEM/VLB 1000 cell line was maintained as a suspension in minimum essential medium supplemented with 10% fetal bovine serum in a humidied atmosphere of 95% air and 5% CO2 while the SK/VLB 1000 cell line was maintained as adherent cells using the identical medium conditions as the CEM cells. The CEM/VLB 1000 cells were seeded at a density of 5×10^4 cells/well in a 96 well microtiter plate while the SK/VLB 1000 cell line was seeded at a density of 2,500 cells/well after trypsinization.
(In general: Alamar Blue is a resazurin reagent that responds to reducing activity.)

Assay [2] relates to CEM/VLB1000 cell line. Description: [3H]VLB accumulation in CEM/VLB1000 cells. The format is cell-based. Particulars: Homo sapiens, midpoint of minimum and maximum increase in accumulation of 3H-vinblastine (275 nM), 3 hours at 37° C. As to the method:
^3 H-vinblastine accumulation was also measured in the CEM/VLB1000 cell line. Corning Easy-Wash 96 well plates were pretreated with PBS and 1% BSA for 60 minutes and then removed. CEM/VLB1000 cells were seeded at 2×10^5, 40 μL volume. Plates were incubated at 37° C. for 30-60 minutes prior to use. The reference reversing agent, verapamil, or the compound of the present invention was added to the well followed by addition of media containing ^3 H-vinblastine (final concentration=275nM). Plates were allowed to incubate for 3 hours at 37° C. Cells were harvested onto pretreated Wallace filtermats A (pretreated with 0.1% polyethyleneimine) using a TomTek harvester-96. After filtering, the filtermats were allowed to dry completely. Meltix B scintillant was then added to the filtermats. The filters were then placed in a 90° C. oven for approximately 3-5 minutes and then removed. Scintillant was allowed to solidify on the filtermats. Filtermats were then placed in sample bags and read on a Wallace BetaPlate scintillation counter. The effects of compounds of the present invention in the cytotoxicity potentiation assays and vinblastine (VLB) accumulation assay are given in the Table below:
^2 Values presented are the midpoint (EC50 ) of the minimum and
maximum increase in accumulation of ^3 Hvinblastine caused by the
specfic compound of the present invention.

Turning to `COC/C=C/c1ccc(-c2nc(-c3ccc(N(C)C)cc3)c(-c3ccc(N(C)C)cc3)[nH]2)cc1` [Example 74, 2-[4-(3-methoxy-trans-1-propen-1-yl)phenyl]-4,5-bis (4-N,N-dimnethylaminophenyl) imidazole], the EC50 (as a rule, the concentration at which the effect is half-maximal) is 130 nM in assay [1] and 2000 nM in assay [2].
Turning to `CCOC/C=C/c1ccc(-c2nc(-c3ccc(N(C)C)cc3)c(-c3ccc(N(C)C)cc3)[nH]2)cc1` [Example 75, 2-[4-(3-ethoxy-trans-1-propen-1-yl)phenyl]-4,5-bis (4-N,N-dimethylaminophenyl) imidazole], the concentration for a half-maximal effect (EC50) in assay [1] turned out to be 98 nM; in assay [2], 1200 nM.
For `CN(C)c1ccc(-c2nc(-c3ccc(/C=C/COCc4ccccc4)cc3)[nH]c2-c2ccc(N(C)C)cc2)cc1` [Example 77, 2-[4-(3-benzyloxy-trans-1-propen-1-yl)phenyl]-4,5-bis (4-N,N-dimethylaminophenyl) imidazole], the values for the EC50 in assay [1] and in assay [2] were 340 nM and 1200 nM, respectively.
For `CN(C)C(=O)/C=C/c1ccc(-c2nc(-c3ccc(N(C)C)cc3)c(-c3ccc(N(C)C)cc3)[nH]2)cc1` [Example 111] the same measures were 620 nM and 1700 nM.
Consider `CN(C)c1ccc(-c2nc(-c3ccc(/C=C/CO)cc3)[nH]c2-c2ccc(N(C)C)cc2)cc1` [Example 113, 2-[4-(3-hydroxy-trans-1-propen-1-yl)phenyl]-4,5-bis (4-N,N-dimethylaminophenyl) imidazole], for which the EC50 turned out to be 410 nM in assay [1] and 3900 nM in assay [2].
